{
  "source": "patent US10253322B2",
  "about": "“Method for the production of transgenic plants” (MONSANTO TECHNOLOGY LLC, priority 2001, dated 2019)",
  "key": {"wheat mesocotyl explants [1]": {"test_system": "wheat mesocotyl explants", "test": "Multiple shoot production with cytokinins alone, wheat mesocotyl explants", "assay_type": "cell-based", "details": "cytokinin 5 mg/L, 32 days after culture", "description": "A. Wheat mesocotyl explant: Mature wheat seeds were surface sterilized first in 70% ethanol for 1 min. and then soaked in 20% CLOROX® (5.25% sodium hypochlorite) and shaken at 250 rpm for 20 min. The seeds were then rinsed five times with sterile distilled water and then placed in 100×25 mm petri dishes containing a sterile piece of felt and ˜15 mL of double distilled sterile water with 5 μM BA for germination. The seeds were cultured for 1 day in darkness at ˜24° C. Mesocotyl sections about 2-3 mm in length were then excised by removing the upper portion of the coleoptile, approximately 1-1.5 mm in length, and root tissue around the crown region. These mesocotyl explants contain at least several different and distinct meristems, such as a scutellar node, a coleoptile node, a first leaf bud and possibly several leaf nodes, and an apical meristem. This mesocotyl explant thus comprises an apical meristem and several axillary meristems, including the scutellar node meristem. […] It is also important that the explants have all of the described meristems intact after excision, in order to maximize multiple bud response in culture.\nWheat explants such as mesocotyl sections from seedlings, mature embryos from mature seeds, and immature embryos from immature seeds were cultured on multiple shoot inducing media comprising combinations of cytokinins, auxins and abscisic acid (ABA). […] The particular media compositions used for this invention are described in detail in Table 1. The mesocotyl explants were placed on media with the acropetal end up, and mature and immature embryo explants were placed on media with the scutellum-side up. […]\nFor the first three weeks, the explants were usually trimmed, by removing the top portion of coleoptile 3-5 mm above the crown region for wheat, every 3 to 5 days to inhibit dominant growth.\nFour different cytokinins, not in combination with auxin, were tested for their ability to induce multiple shoot induction on wheat mesocotyl explants: BA, kinetin, zeatin and TDZ."}, "wheat mesocotyl explants [2]": {"test_system": "wheat mesocotyl explants", "test": "Multiple bud induction from primary meristems on multiple shoot inducing media, wheat mesocotyl explants", "assay_type": "cell-based", "details": "4 weeks after culture initiation (Table 3)", "description": "A. Wheat mesocotyl explant: Mature wheat seeds were surface sterilized first in 70% ethanol for 1 min. and then soaked in 20% CLOROX® (5.25% sodium hypochlorite) and shaken at 250 rpm for 20 min. The seeds were then rinsed five times with sterile distilled water and then placed in 100×25 mm petri dishes containing a sterile piece of felt and ˜15 mL of double distilled sterile water with 5 μM BA for germination. The seeds were cultured for 1 day in darkness at ˜24° C. Mesocotyl sections about 2-3 mm in length were then excised by removing the upper portion of the coleoptile, approximately 1-1.5 mm in length, and root tissue around the crown region. These mesocotyl explants contain at least several different and distinct meristems, such as a scutellar node, a coleoptile node, a first leaf bud and possibly several leaf nodes, and an apical meristem. This mesocotyl explant thus comprises an apical meristem and several axillary meristems, including the scutellar node meristem. It is important when excising the mesocotyl explant to leave a whole piece of the scutellum attached to the explant, because the scutellar node meristem contributes a large primary meristem from which upwards of 100 buds can be produced via the method of the present invention, relative to the small primary meristems contributed by the other meristems from which a smaller number of buds can be produced. […]"}, "[3]": {"test_system": "shoots from Bobwhite mesocotyl explants", "test": "Root induction of elongated shoots", "assay_type": "cell-based, wheat", "details": "IBA 1 mg/L", "description": "Usually three to five weeks after the induction stage culture described above, multiple bud clumps were divided and transferred to a shoot elongation medium, and cultured under 16 h photoperiod at about 25° C. for 3 to 4 weeks. The shoot elongation medium comprised MS basal medium supplemented with ascorbic acid at 100 mg/L, 2-[N-Morpholino]ethanesulfonic acid (MES) at 1.95 g/L, casein hydrolysate at 100 mg/L, maltose at 40 g/L, and Schweizer-Hall® gelling agent at 2 g/L. The elongated shoots were transferred to a rooting medium, comprising MS basal medium supplemented with IBA at 1 mg/L, ascorbic acid at 100 mg/L, 2-[N-Morpholino] ethanesulfonic acid (MES) at 1.95 g/L, casein hydrolysate at 100 mg/L, maltose at 40 g/L, and Schweizer-Hall® gelling agent at 2 g/L, for 3 to 4 weeks, after which sufficient roots had formed to transfer the shoots to soil.\nThree genotypes were tested to evaluate shoot elongation from the buds induced in the above described multiple shoot induction step. Bobwhite, 251BW012 and Autry525 were chosen as representative standard, good and poor lines respectively, based on a previous study of embryogenic regeneration capacity. The buds were removed from the media containing the growth regulator combination described in the induction stage, after about 3-5 weeks of culture. […]"}, "[4]": {"details": "(D) continuous dark first two weeks, then light 16/8 two weeks"}, "[5]": {"details": "(L) 16 h photoperiod for four weeks"}},
  "data": [
    {"smiles": "c1ccc(CNc2ncnc3nc[nH]c23)cc1", "note": "[BA, 6-benzylaminopurine]", "values": [
      {"measurement": "% of explants producing 2-5 shoots (each from a single primary meristem)", "setting": "wheat mesocotyl explants [1]; [4]", "result": 15.0, "unit": "%"},
      {"measurement": "% of explants producing multiple shoots from a single primary meristem", "setting": "wheat mesocotyl explants [1]; [4]", "result": 0, "unit": "%"},
      {"measurement": "% of explants producing 2-5 shoots (each from a single primary meristem)", "setting": "wheat mesocotyl explants [1]; [5]", "result": 10.0, "unit": "%"},
      {"measurement": "% of explants producing multiple shoots from a single primary meristem", "setting": "wheat mesocotyl explants [1]; [5]", "result": 0, "unit": "%"}
    ]},
    {"smiles": "C/C(=C\\CNc1ncnc2[nH]cnc12)CO", "note": "[Zeatin, zeatin]", "values": [
      {"measurement": "% of explants producing 2-5 shoots (each from a single primary meristem)", "setting": "wheat mesocotyl explants [1]; [4]", "result": 45.0, "unit": "%"},
      {"measurement": "% of explants producing multiple shoots from a single primary meristem", "setting": "wheat mesocotyl explants [1]; [4]", "result": 0, "unit": "%"},
      {"measurement": "% of explants producing 2-5 shoots (each from a single primary meristem)", "setting": "wheat mesocotyl explants [1]; [5]", "result": 20.0, "unit": "%"},
      {"measurement": "% of explants producing multiple shoots from a single primary meristem", "setting": "wheat mesocotyl explants [1]; [5]", "result": 0, "unit": "%"}
    ]},
    {"smiles": "c1coc(CNc2ncnc3[nH]cnc23)c1", "note": "[Kinetin, kinetin]", "values": [
      {"measurement": "% of explants producing 2-5 shoots (each from a single primary meristem)", "setting": "wheat mesocotyl explants [1]; [4]", "result": 23.8, "unit": "%"},
      {"measurement": "% of explants producing multiple shoots from a single primary meristem", "setting": "wheat mesocotyl explants [1]; [4]", "result": 0, "unit": "%"},
      {"measurement": "% of explants producing 2-5 shoots (each from a single primary meristem)", "setting": "wheat mesocotyl explants [1]; [5]", "result": 20.0, "unit": "%"},
      {"measurement": "% of explants producing multiple shoots from a single primary meristem", "setting": "wheat mesocotyl explants [1]; [5]", "result": 0, "unit": "%"}
    ]},
    {"smiles": "O=C(Nc1ccccc1)Nc1cnns1", "note": "[TDZ, thidiazuron]", "values": [
      {"measurement": "% of explants producing 2-5 shoots (each from a single primary meristem)", "setting": "wheat mesocotyl explants [1]; [4]", "result": 76.2, "unit": "%"},
      {"measurement": "% of explants producing multiple shoots from a single primary meristem", "setting": "wheat mesocotyl explants [1]; [4]", "result": 0, "unit": "%"},
      {"measurement": "% of explants producing 2-5 shoots (each from a single primary meristem)", "setting": "wheat mesocotyl explants [1]; [5]", "result": 80.0, "unit": "%"},
      {"measurement": "% of explants producing multiple shoots from a single primary meristem", "setting": "wheat mesocotyl explants [1]; [5]", "result": 0, "unit": "%"},
      {"measurement": "% explants producing 20-80 buds/primary meristem", "setting": "wheat mesocotyl explants [2]", "result": 0, "unit": "%"},
      {"measurement": "No. primary meristems produced/explant", "setting": "wheat mesocotyl explants [2]", "result": "2-5"}
    ]},
    {"smiles": "O=C(O)CCCc1c[nH]c2ccccc12", "note": "[IBA, 3-indolebutyric acid]", "values": [
      {"measurement": "% shoots producing roots", "setting": "[3]", "result": "significantly increased the rooting response"}
    ]}
  ]
}
